Consider three molecules from article PMC2845980 (Bioorganic & medicinal chemistry, 2010).

One data set addresses tgDHFR (Toxoplasma gondii, UniProt Q07422). Kind of data set: Spectrophotometric DHFR inhibition assay, T. gondii enzyme. It counts as biochemical. The settings on record: IC50 rlDHFR / IC50 tgDHFR.
A further data set is described as follows: Solubility. It counts as physicochemical. The following applies: qualitative statement.
The mark [1] stands for this setting: first study, i.p. 50 mg/kg/day, mouse.
[2] abbreviates: second study, i.p. 50 mg/kg/day, mouse.

Where two headings read alike, the source gives them in different places.

tgDHFR, sequence (Q07422 whole entry): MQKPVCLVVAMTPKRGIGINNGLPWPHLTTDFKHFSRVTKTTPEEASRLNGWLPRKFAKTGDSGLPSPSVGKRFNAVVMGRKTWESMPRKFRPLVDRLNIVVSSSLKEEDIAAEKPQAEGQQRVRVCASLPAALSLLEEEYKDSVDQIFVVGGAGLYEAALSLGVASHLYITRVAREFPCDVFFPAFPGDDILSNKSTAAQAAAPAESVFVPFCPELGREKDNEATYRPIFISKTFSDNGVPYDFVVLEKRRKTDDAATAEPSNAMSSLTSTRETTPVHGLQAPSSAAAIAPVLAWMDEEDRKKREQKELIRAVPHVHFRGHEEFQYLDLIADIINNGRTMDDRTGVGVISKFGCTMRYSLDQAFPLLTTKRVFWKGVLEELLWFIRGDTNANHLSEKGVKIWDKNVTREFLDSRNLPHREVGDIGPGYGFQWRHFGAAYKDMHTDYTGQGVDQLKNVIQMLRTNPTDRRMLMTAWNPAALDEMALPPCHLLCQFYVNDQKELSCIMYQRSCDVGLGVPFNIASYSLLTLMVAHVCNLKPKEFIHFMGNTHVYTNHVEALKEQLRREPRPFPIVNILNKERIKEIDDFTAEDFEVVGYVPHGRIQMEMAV

Consider `Cc1c(Sc2ccc3ccccc3c2)[nH]c2nc(N)nc(N)c12` [Compound 90, 2,4-Diamino-5-methyl-6-(2-naphthylthio)pyrrolo[2,3-d]pyrimidine], for which, at tgDHFR, the selectivity ratio rl/tg is on record as 5.

For `Cc1cccc(C)c1Sc1[nH]c2nc(N)nc(N)c2c1C` [Compound 91, 2,4-Diamino-5-methyl-6-(2′,6′-dimethylphenylthio)pyrrolo[2,3-d]pyrimidine], the “Mean counts of T. gondii per 1000x field in peritoneal harvest” value in the data set on T. gondii (setting [1]) came to 12.5 counts per 1000x field; in the data set with T. gondii (setting [2]) it was 8.9 counts per 1000x field. Also, the “Median counts of T. gondii per 1000x field in peritoneal harvest” value with T. gondii (setting [1]) is 7.0 counts per 1000x field; in the data set with T. gondii (setting [2]), 5.0 counts per 1000x field. Besides, the “gross toxicity in treated mice” value with T. gondii (mouse, in vivo, ip, 50 mg/kg/day) is listed as “no gross evidence of toxicity”. In the data set with T. gondii (second study, i.p. 50 mg/kg/day), the “reduction of the median counts per 1000x field versus control” value is reported as “more than two-fold”. Besides, the solubility properties entry in “Solubility” was “poor solubility properties”.

For `Cc1cccc(C)c1Sc1[nH]c2nc(N)nc(N)c2c1C.Cl` [Compound 95, 2,4-Diamino-5-methyl-6-(2′,6′-dimethylphenylthio)pyrrolo[2,3-d]pyrimidine hydrochloride salt], in the data set with T. gondii (setting [2]), the “Mean counts of T. gondii per 1000x field in peritoneal harvest” value is given as 2.4 counts per 1000x field and the “Median counts of T. gondii per 1000x field in peritoneal harvest” value is recorded as 1.0 counts per 1000x field. The solubility properties result in the data set “Solubility” was “more soluble”.
